Reference: patent publication US7772237B2, “Thio-substituted tricyclic and bicyclic aromatic methanesulfinyl derivatives” (Cephalon France, priority 2004, dated 2010)

System: male Wistar rats
Assay: Evaluation of wake promoting activity in rats (EEG/EMG sleep/wake scoring)
Assay type: in vivo, rat
Conditions: i.p., 100 mg/kg, p<0.05 vs control groups
Procedure: Biological Data Methodology: Evaluation of Wake Promoting Activity in Rats
The methodology utilized for evaluating wake promoting activity of test compounds is based on that described by Edgar and Seidel, Journal of Pharmacology and Experimental Therapeutics, 283:757-769, 1997, and incorporated herein in its entirety by reference.
Animal Surgery. Adult, male Wistar rats (275-320 g from Charles River Laboratories, Wilmington, Mass.) were anesthetized (Nembutal, 45 mg/kg, ip.) and surgically prepared with implants for recording of chronic EEG (encephalographic) and EMG (electromyographic) recording. The EEG implants were made from commercially available components (Plastics One, Roanoke, Va.). EEG signals were recorded from stainless steel screw electrodes: 2 frontal (+3.0 mm AP from bregma, ±2.0 mm ML), and 2 occipital (−4.0 mm AP from bregma, ±2.0 mm ML). Two Teflon-coated stainless steel wires were positioned under the nuchal trapezoid muscles for EMG recording. […]
Data acquisition. […] On the day of dosing, data was recorded for 6 to 10 hours beginning at 11 AM.
(i) Drug administration and study design. Compounds were evaluated on groups of from 4 to 8 rats carried out over one or two separate test sessions. […]
Sleep/wake scoring. Sleep and wake activity were determined manually using ICELUS software. […]

CC(C)(C)OC(=O)N1CCN(C(=O)CSCc2ccc3oc4ccc(F)cc4c3c2)CC1 [Example 26, 4-[2-(8-fluorodibenzofuran-2-yl-methylsulfanyl)acetyl]-piperazine-1-carboxylic acid tert-butyl ester]
wakefulness compared to vehicle-treated animals: significantly greated wakefulness
